Source: patent US20220023389A1, “VASODILATORS FOR USE IN THE TREATMENT OF A RETINAL ISCHEMIC DISORDER” (University of Copenhagen, priority 2018, published 2022)
Where no end group is shown, it is not given here.

How the values were obtained:
[1] = molecular target: calcitonin receptor-like receptor (CLR) in complex with receptor activity-modifying protein 1 (RAMP1) (Homo sapiens, UniProt O60894+Q16602); details: removal of residues 1-7; cited from earlier work
[2] = tested on: retina (photoreceptors, bipolar cells); assay: Electroretinography (scotopic A-wave and B-wave amplitude) after ET-1 induced retinal ischemia; type: in vivo, Sprague dawley rat; details: day 21, ET-1 induced ischemia right eye (5 μL 500 μM), ET-1 alone/vehicle
Protocol: Rats were anesthetized with 90 mg/kg ketamine & 10 mg/kg xylazine (i.p). Oxybuprocain 0.4% Anesthetic was applied topically to the eyes.
Guided under a stereoscopic microscope to avoid lens and retinal injury, 5 μl intravitreal injection of 500 uM ET-1 (Phoenix Pharmaceuticals, Inc.) was performed using a digital controller and UltraMicroPump III, with NanoFil 10 μl syringe (WPI) connected to intraoucular injector with a 34 g bevelled needle.
Injection was performed through the sclera, inserted approximately 1 mm posterior to the corneal limbus at a 45° angle to avoid contact with the lens capsule and direct the contents, 1.5 mm into the vitreous chamber, in the right eye (FIG. 1). The needle remained in the vitreous cavity for 30 seconds after injection and was then gently withdrawn. […]
Day 0—ET-1 is administered intravitreally alone or in combination with the current invention. Fundus is recorded before and after injection. […]
After overnight dark adaptation for at least 12 hours, the animals were anesthetized with 90 mg/kg ketamine and 10 mg/kg xylazine delivered by a single intraperitoneal injection. […] ERGs were recorded from both eyes simultaneously with a gold wire electrode loops, placed on the corneal apex, with a drop of saline applied to the corneal surface for hydration during the testing procedure. […] The scotopic A-wave amplitude and B-wave amplitude were recorded and evaluated.

calcitonin receptor-like receptor (CLR) in complex with receptor activity-modifying protein 1 (RAMP1), sequence (Q16602 23-461): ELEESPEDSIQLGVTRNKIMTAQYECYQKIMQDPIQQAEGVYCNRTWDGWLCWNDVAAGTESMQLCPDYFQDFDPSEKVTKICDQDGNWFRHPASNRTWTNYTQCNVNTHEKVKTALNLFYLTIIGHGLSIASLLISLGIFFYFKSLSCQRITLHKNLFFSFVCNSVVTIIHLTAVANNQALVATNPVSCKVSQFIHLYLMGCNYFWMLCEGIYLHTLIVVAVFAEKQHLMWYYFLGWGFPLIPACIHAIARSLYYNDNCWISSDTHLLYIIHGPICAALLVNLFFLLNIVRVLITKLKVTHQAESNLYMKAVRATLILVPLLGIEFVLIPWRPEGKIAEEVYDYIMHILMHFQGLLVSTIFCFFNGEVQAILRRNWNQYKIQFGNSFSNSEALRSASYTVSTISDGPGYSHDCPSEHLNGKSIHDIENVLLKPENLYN
calcitonin receptor-like receptor (CLR) in complex with receptor activity-modifying protein 1 (RAMP1), sequence (O60894 27-148): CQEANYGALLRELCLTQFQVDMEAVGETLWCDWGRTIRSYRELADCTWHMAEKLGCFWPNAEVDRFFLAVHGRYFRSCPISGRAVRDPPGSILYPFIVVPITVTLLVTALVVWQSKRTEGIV

Row | Substance | binding potency relative to CGRP (less potent) [1] | efficacy [1] | avg. max A-wave amplitude [2] | avg. max B-wave amplitude [2]
1 | CGRP8-37 | approximately 10 fold | lost all efficacy | – | –
2 | Endothelin-1 (CSCSSLMDKECVYFCHLDIIW; ends and bridges not checked; cysteine pairing not given here; UniProt P05305 53-73, looked up) [ET-1, vasoconstrictive peptide injected intravitreally to induce retinal ischemia] | – | – | 457±40 μV | 804±188 μV
